# Results as given in paper PMC11413778, “Honokiol enhances the sensitivity of cetuximab in KRAS^G13D mutant colorectal cancer through destroying SNX3-retromer complex” (Theranostics, 2024).
# pKd: −log10 of the molar value.
# Molecular target: T1, SNX3 (Homo sapiens, UniProt O60493)
# T1 construct: Recombinant Human SNX3 protein (ab109970)
# Experiment: biolayer interferometry (biotinylated SNX3 on SA biosensor), supported by CETSA in HCT116 and LoVo lysates
# Assay type: binding
# T1 sequence (O60493 2-162): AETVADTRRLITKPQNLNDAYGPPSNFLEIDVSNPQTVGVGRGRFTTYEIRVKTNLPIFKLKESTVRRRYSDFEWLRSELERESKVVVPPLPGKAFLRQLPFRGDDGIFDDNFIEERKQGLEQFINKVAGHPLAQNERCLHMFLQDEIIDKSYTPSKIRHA
smiles,measurement,value
"C=CCc1ccc(O)c(-c2ccc(O)c(CC=C)c2)c1 [HNK, honokiol]",pKd,4.54
